Measured values taken from patent US20050267016A1, “CD-10 activated prodrug compounds” (priority 2001, published 2005).
Read-outs that look alike come from different tables or passages of the source. Marks after values point to notes of the source that are not given here.

Legend:
[1] = system: HT-29 (colon carcinoma) cells; assay: cells; format: cell-based, human; conditions: 48 hours total incubation, read-out: IC50 HT29
Experimental: (§1) Adherent cells, LNCaP (prostate carcinoma), HT-29 (colon carcinoma) and PC-3 (prostate carcinoma), were cultured in DMEM media containing 10% heat inactivated fetal calf serum (FCS). On the day of the study the cells were detached from the plate with a trypsin solution. The collected cells were washed and resuspended at a concentration of 0.25×10^6 cells/ml in DMEM containing 10% FCS. 100 μl of cell suspension were added to 96 well plates and the plates were incubated for 3 hours to allow the cells to adhere. […] The plates were then incubated for 24 hours, pulsed with 10 μl of a 100 μCi/ml ^3H-thymidine and incubated for an additional 24 hours (total incubation time 48 hours). The plates were harvested using a 96 well Harvester (Packard Instruments) and counted on a Packard Top Count Counter. Four parameter logistic curves were fitted to the ^3H-thymidine incorporation as a function of drug molarity using Prism software to determine IC50 values.

[2] = system: PC-3 (prostate carcinoma) cells; assay: cells; format: cell-based, human
Experimental: as §1
as §1, with “carcinoma), PC-3 (prostate” for “carcinoma), HT-29 (colon”, “and 22 RV1” for “and PC-3”, “with 1:0” for “with 10”

[3] = Metabolism and clearance in normal mice (plasma and urine, LC MS/MS); format: in vivo; conditions: for dose excreted: iv, 117 mg/kg
Experimental: The metabolism and clearance of Suc-Ile-Ala-Leu-Dox was studied in normal mice. The mice were administered Suc-Ile-Ala-Leu-Dox at a single intravenous bolus dose of 117 mg/kg. Plasma samples were obtained at 1 and 4 hours. Plasma samples of 100 μl were transferred to microcentrifuge tubes (1.5 mL) and an internal standard of daunorubicin (20 μL at 0.5 mg/ml) was added together with acetonitrile (400 μl). The tubes were capped and briefly vortexed followed by centrifugation at 14,000 rpm. 420 μl from each tube was removed and dried in vacuo. Each sample was reconstituted in 65 μl 20 mM aqueous ammonium formate pH 4.5 buffer (AF) containing acetonitrile (20%) prior to analysis by reverse phase liquid chromatography in combination with tandem mass spectrometry (LC MS/MS).
Urine was collected at 2 and 24 hours post administration from pairs of mice in metabolic cages. Urine samples were diluted with AF containing acetonitrile (20%) to give a target analyte concentration within the practical range of the LC MS/MS assay. 30 μl of each diluted sample was placed in an Eppendorf tube (1.5 ml) and an internal standard of daunorubicin (20 μL at 0.5 mg/ml) was added together with 50 μl of AF containing acetonitrile (20%). Each sample was then analyzed by LC MS/MS.
An Agilent HP1100 HPLC with DAD detector and Chemstation software was coupled to a PE Sciex API 365 mass spectrometer with an electrospray ion source. HPLC was performed on a TSK-Gel Super ODS, […], 4.6×50 mm (TosoHaas) reversed phase column equipped with a […] C18 guard disc (Higgins Analytical) and stainless steel frit (Upchurch Scientific). Chromatography was performed at room temperature. The flow rate was 0.5 ml/min. Injection volume was 50 μL. Gradient elution was performed using a mobile phase of 20 mM aqueous AF pH 4.5 buffer with increasing amounts of acetonitrile. The API 365 was operated at 365° C. in a multiple reaction monitoring mode, set to monitor specific analyte parent-daughter ion pairs. Integration of chromatograms was performed by MacQuant software (PE Sciex) and quantitation of each analyte obtained by comparison to previously obtained calibration curves. Daunorubicin was used as an internal standard in all cases.
For the calculation of percent of administered dose, plasma volume was estimated to be 40% of blood volume, which was calculated as 7% of animal's body weight. At 2 and 24 hours the parent compound was detected in urine at 3.9% and 15.0% of the administered dose, showing that the kidney is a major organ of excretion for the prodrug (FIG. 17).
Plasma samples were obtained at 1 and 4 hours from separate mice. Urine was collected at 2 and 24 hours post administration from pairs of mice in metabolic cages. The plasma and urine samples were prepared and analyzed as described in Example 17.

[4] = system: LNCaP human prostate carcinoma xenografts
Experimental: LNCaP human prostate carcinoma cells express high levels of CD10 on the surface. Suc-βAla-Leu-Ala-Leu-Dox and Suc-Leu-Ala-Gly-Dox were tested at a single dose level Q7Dx5. […] The mice were weighed and tumors were measured (by caliper) at least once a week prior to start of dosing (Day 0), then twice a week during the study. Immediately before the start of dosing (Study Day −2 to Day 0), mice were randomized to various groups based on the weight of the tumors. […] Mice were euthanized after the tumors reached a cutoff weight of 1.5 g (cancer endpoint), or when mice suffered over 25% weight loss (toxic endpoint). Studies were terminated at Day 60.

[5] = system: CD10 transfected CHO cells, DB4; assay: 3H thymidine proliferation assay, CD10 transfected CHO DB4
Experimental: (§2) The fully assembled coding region was sub-cloned into a mammalian expression vector, downstream of the hCMV-MIE promoter. DNA sequence analysis confirmed sequence identity with the coding sequence of human CD10 (Genbank accession number Y00811). The expression plasmid was linearized and stably transfected into CHO—S cells. CD10 expressing transfectant clones were selected under 500 ug/mL of hygromycin and screened by flow cytometry for cell-surface CD10 expression using a commercially available anti-CD10-FITC antibody.

[6] = system: CD10 transfected CHO cells, Clone #7; assay: 3H thymidine proliferation assay, CD10 transfected CHO Clone #7
Experimental: as §2

[7] = system: Porcine Kidney CD10; assay: Hydrolysis by purified CD10; format: biochemical; conditions: for % hydrolysis/10 hr: 12.5 μg/mL, 37° C., pH 7.4, product Leu-doxorubicin; for Fraction hydrolyzed relative to standard: standard Suc-βAla-Leu-Ala-Leu-Dox
Experimental: Reaction products were analyzed by HPLC with fluorescence detection. Rates were essentially linear over the incubation period. The observed product was Leu-doxorubicin.

[8] = Pharmacokinetic/metabolism study, single IV bolus; conditions: for Major Plasma Metabolite: mice; for Plasma AUC0-6 hr of AL-Dox or AG-Dox* / Plasma AUC0-6 hr of L-Dox or G-Dox*: single IV bolus approximately 100 μmol/Kg; for Plasma AUC0-6 hr of Dox: single IV bolus approximately 100 μmol/Kg of prodrug
Experimental: Plasma was obtained from three individual animals in each group at 5 minutes, 1, 2, 4, or 6 hr.

[9] = Dose 75 mg/kg (Table 19), Q7DX5

SMILES: COc1cccc2c1C(=O)c1c(O)c3c(c(O)c1C2=O)C[C@@](O)(C(=O)CO)C[C@@H]3O[C@H]1C[C@H](N)[C@H](O)[C@H](C)O1 [Doxorubicin, reference compound]
- IC50 ([1]; Homo sapiens, HT-29): 52 nM
- IC50 ([2]; Homo sapiens, PC-3, 48 hours total incubation, read-out: IC50 PC-3): 75 nM
- IC50 ([2]; Homo sapiens, PC-3, Table 6, 48 hours, read-out: IC50 PC-3 CD10−PSA−): 40 nM
- Urine (% adm. dose) 2 hr ([3]; after Suc-Ile-Ala-Leu-Dox 117 mg/kg, collected 0-2 hours): 0.06 % adm. dose
- Urine (% adm. dose) 24 hr ([3]; after Suc-Ile-Ala-Leu-Dox 117 mg/kg, collected 2-24 hours): 0.36 % adm. dose
- Plasma (% adm. dose) 4 hr ([3]; mouse, in vivo, 4 h): 0.00 % adm. dose
- Tumor Growth Inhibition (% over control) ([4]; Dose 5 mg/kg, Q7DX5): 32.5%
- Tumor Weight (mg) D14 ([4]; Dose 5 mg/kg, Q7DX5): D14: 567 ± 77 (n = 6) mg
- Toxicity (Weight Loss >25%) ([4]; male, NCr nude, mouse, in vivo, 5 mg/kg, 60 days): 4/6
- IC50 ([5]; Cricetulus griseus, CHO, read-out: IC50 DB4): 310 nM
- IC50 ([6]; Cricetulus griseus, CHO, read-out: IC50 Clone #7): 640 nM

SMILES: CC[C@H](C)[C@H](NC(=O)CCC(=O)O)C(=O)N[C@@H](C)C(=O)N[C@@H](CC(C)C)C(=O)N[C@H]1C[C@H](O[C@H]2C[C@](O)(C(=O)CO)Cc3c(O)c4c(c(O)c32)C(=O)c2c(OC)cccc2C4=O)O[C@@H](C)[C@H]1O [Suc-Ile-Ala-Leu-Dox]
- % hydrolysis/10 hr [7]: 12.5 % hydrolysis/10 hr
- Fraction hydrolyzed relative to standard [7]: 1.1
- IC50 [1]: 47000 nM
- IC50 ([2]; 48 hours total incubation, read-out: IC50 PC-3): 88000 nM
- dose excreted ([3]; mouse, in vivo, after Suc-Ile-Ala-Leu-Dox 117 mg/kg, collected 0-2 hours, read-out: Urine (% adm. dose) 2 hr): 3.9%
- dose excreted ([3]; mouse, in vivo, after Suc-Ile-Ala-Leu-Dox 117 mg/kg, collected 2-24 hours, read-out: Urine (% adm. dose) 24 hr): 15%
- Major Plasma Metabolite [8]: Leu-Dox
- Plasma AUC0-6 hr of AL-Dox or AG-Dox* [8]: 1.0 µM·h
- Plasma AUC0-6 hr of L-Dox or G-Dox* [8]: 6.2 µM·h
- Plasma AUC0-6 hr of Dox [8]: 0.9 µM·h

SMILES: CC[C@H](C)[C@H](NC(=O)CCNC(=O)CCC(=O)O)C(=O)N[C@@H](C)C(=O)N[C@@H](CC(C)C)C(=O)N[C@H]1C[C@H](O[C@H]2C[C@](O)(C(=O)CO)Cc3c(O)c4c(c(O)c32)C(=O)c2c(OC)cccc2C4=O)O[C@@H](C)[C@H]1O [Suc-βAla-Ile-Ala-Leu-Dox]
- % hydrolysis/10 hr [7]: 22.1 % hydrolysis/10 hr
- Fraction hydrolyzed relative to standard [7]: 2.0
- dose excreted ([3]; mouse, in vivo, Urine (% adm. dose) 2 hr): 12.7%
- dose excreted ([3]; mouse, in vivo, Urine (% adm. dose) 24 hr): 4.81%
- Major Plasma Metabolite [8]: Leu-Dox
- Plasma AUC0-6 hr of AL-Dox or AG-Dox* [8]: 0.5 µM·h
- Plasma AUC0-6 hr of L-Dox or G-Dox* [8]: 8.5 µM·h
- Plasma AUC0-6 hr of Dox [8]: 1.5 µM·h
- Ratio Suc-β-Ala-Ile-Ala-Leu/Dox ([5]; DB4, ratio of IC50): 14
- Ratio Suc-β-Ala-Ile-Ala-Leu/Dox ([6]; Clone #7, ratio of IC50): 17

SMILES: COc1cccc2c1C(=O)c1c(O)c3c(c(O)c1C2=O)C[C@@](O)(C(=O)CO)C[C@@H]3O[C@H]1C[C@H](NC(=O)[C@H](CC(C)C)NC(=O)[C@H](C)NC(=O)[C@H](CC(C)C)NC(=O)CCNC(=O)CCC(=O)O)[C@H](O)[C@H](C)O1 [Suc-βAla-Leu-Ala-Leu-Dox]
- % hydrolysis/10 hr [7]: 10.9 % hydrolysis/10 hr
- Fraction hydrolyzed relative to standard [7]: 1.0
- Tumor Growth Inhibition (% over control) D14 [4, 9]: D14: 53.4** %
- Tumor Growth Inhibition (% over control) D21 [4, 9]: D21: 66.2** %
- Tumor Weight (mg) D14 [4, 9]: D14: 391 ± 70 (n = 7) mg
- Tumor Weight (mg) D21 [4, 9]: D21: 318 ± 67 (n = 7) mg
- Toxicity (Weight Loss >25%) ([4]; Dose 75 mg/kg (Table 19), Q7DX5, mice affected/total): 7/7
- Major Plasma Metabolite [8]: Ala-Leu-Dox
